Measured values: ChEMBL document CHEMBL4765290, “Design, synthesis and biological evaluation of novel dual-acting modulators targeting both estrogen receptor α (ERα) and lysine-specific demethylase 1 (LSD1) for treatment of breast cancer” (Eur J Med Chem, 2020)

Experiments:
MCF7 [1] = assay: cells; settings: Homo sapiens, MCF7, 72 h
Description: Antiproliferative activity against human MCF7 cells assessed as reduction in cell viability after 72 hrs by MTT assay

[2] = target: Lysine-specific histone demethylase 1A (Homo sapiens, UniProt O60341)
Description: Inhibition of LSD1 (unknown origin) incubated for 90 mins by fluorescence based assay

MCF7 [3] = assay: Induction of apoptosis in human MCF7 cells assessed as early apoptotic cells at 30 uM incubated for 24 hrs by AnnexinV-FITC and propidium iodide staining based flow cytometry analysis (reference value: 3.08 %); assay type: functional
MCF7 [4] = assay: Induction of apoptosis in human MCF7 cells assessed as viable cells at 5 uM incubated for 24 hrs by AnnexinV-FITC and propidium iodide staining based flow cytometry analysis (reference value: 87.12 %); assay type: functional; settings: read-out: Activity
MCF7 [5] = assay: Induction of apoptosis in human MCF7 cells assessed as late apoptotic cells at 10 uM incubated for 24 hrs by AnnexinV-FITC and propidium iodide staining based flow cytometry analysis (reference value: 7.15 %); assay type: functional
MCF7 [6] = assay: Induction of apoptosis in human MCF7 cells assessed as late apoptotic cells at 30 uM incubated for 24 hrs by AnnexinV-FITC and propidium iodide staining based flow cytometry analysis (reference value: 7.15 %); assay type: functional
MCF7 [7] = assay: Induction of apoptosis in human MCF7 cells assessed as necrotic cells at 5 uM incubated for 24 hrs by AnnexinV-FITC and propidium iodide staining based flow cytometry analysis (reference value: 2.35 %); assay type: functional
MCF7 [8] = assay: Induction of apoptosis in human MCF7 cells assessed as viable cells at 30 uM incubated for 24 hrs by AnnexinV-FITC and propidium iodide staining based flow cytometry analysis (reference value: 87.12 %); assay type: functional; settings: read-out: Activity
MCF7 [9] = assay: Induction of apoptosis in human MCF7 cells assessed as necrotic cells at 30 uM incubated for 24 hrs by AnnexinV-FITC and propidium iodide staining based flow cytometry analysis (reference value: 2.35 %); assay type: functional
MCF7 [10] = assay: Induction of apoptosis in human MCF7 cells assessed as necrotic cells at 10 uM incubated for 24 hrs by AnnexinV-FITC and propidium iodide staining based flow cytometry analysis (reference value: 2.35 %); assay type: functional
MCF7 [11] = assay: Induction of apoptosis in human MCF7 cells assessed as early apoptotic cells at 10 uM incubated for 24 hrs by AnnexinV-FITC and propidium iodide staining based flow cytometry analysis (reference value: 3.08 %); assay type: functional
MCF7 [12] = assay: Induction of apoptosis in human MCF7 cells assessed as viable cells at 10 uM incubated for 24 hrs by AnnexinV-FITC and propidium iodide staining based flow cytometry analysis (reference value: 87.12 %); assay type: functional; settings: read-out: Activity
MCF7 [13] = assay: Induction of apoptosis in human MCF7 cells assessed as early apoptotic cells at 5 uM incubated for 24 hrs by AnnexinV-FITC and propidium iodide staining based flow cytometry analysis (reference value: 3.08 %); assay type: functional
MCF7 [14] = assay: Induction of apoptosis in human MCF7 cells assessed as late apoptotic cells at 5 uM incubated for 24 hrs by AnnexinV-FITC and propidium iodide staining based flow cytometry analysis (reference value: 7.15 %); assay type: functional

Row | IC50 (MCF7 [1]) | IC50 [2] | SMILES | further results
1 | 13.8 µM | 18.3 µM | O=S(=O)(Oc1cncc(F)c1)C1CC2OC1C(c1ccc(O)cc1)=C2c1ccc(O)cc1 (stereo unspecified) | –
2 | 18.8 µM | > 50 µM | CCOC(=O)c1ccc(NS(=O)(=O)C2CC3OC2C(c2ccc(O)cc2)=C3c2ccc(O)cc2)cc1 (stereo unspecified) | –
3 | 84 µM | > 50 µM | O=C(Oc1cccnc1Br)C1CC2OC1C(c1ccc(O)cc1)=C2c1ccc(O)cc1 (stereo unspecified) | –
4 | 30.5 µM | 30 µM | COC(=O)c1ccccc1NS(=O)(=O)C1CC2OC1C(c1ccc(O)cc1)=C2c1ccc(O)cc1 (stereo unspecified) | –
5 | 7.9 µM | 5.92 µM | O=S(=O)(Oc1cccc(Br)n1)C1CC2OC1C(c1ccc(O)cc1)=C2c1ccc(O)cc1 (stereo unspecified) | –
6 | 16.7 µM | > 50 µM | O=S(=O)(Oc1cccc2cccnc12)C1CC2OC1C(c1ccc(O)cc1)=C2c1ccc(O)cc1 (stereo unspecified) | –
7 | 38.2 µM | 17.4 µM | O=C(Oc1cccnc1Cl)C1CC2OC1C(c1ccc(O)cc1)=C2c1ccc(O)cc1 (stereo unspecified) | –
8 | 44.5 µM | > 50 µM | Cc1cccc(NC(=O)C2CC3OC2C(c2ccc(O)cc2)=C3c2ccc(O)cc2)c1 (stereo unspecified) | –
9 | 7.84 µM | 12.3 µM | O=S(=O)(Oc1cccnc1Br)C1CC2OC1C(c1ccc(O)cc1)=C2c1ccc(O)cc1 (stereo unspecified) | –
10 | 12.5 µM | > 50 µM | O=c1cc(C(F)(F)F)c2ccc(OS(=O)(=O)C3CC4OC3C(c3ccc(O)cc3)=C4c3ccc(O)cc3)cc2o1 (stereo unspecified) | –
11 | 28.7 µM | > 50 µM | O=S(=O)(Oc1ccccc1)C1CC2OC1C(c1ccc(O)cc1)=C2c1ccc(O)cc1 (stereo unspecified) | –

Second part, the compound before the results:

Row | SMILES | IC50 (MCF7 [1]) | IC50 [2] | further results
12 | O=S(=O)(Oc1cncc(Br)c1)C1CC2OC1C(c1ccc(O)cc1)=C2c1ccc(O)cc1 (stereo unspecified) | 16.4 µM | > 50 µM | –
13 | O=S(=O)(Oc1cccc(Cl)n1)C1CC2OC1C(c1ccc(O)cc1)=C2c1ccc(O)cc1 (stereo unspecified) | 10.2 µM | 4.08 µM | –
14 | O=S(=O)(Oc1cccnc1Cl)C1CC2OC1C(c1ccc(O)cc1)=C2c1ccc(O)cc1 (stereo unspecified) | 30.2 µM | 7.13 µM | –
15 | Cc1cccc(NC(=O)C2CC3OC2C(c2ccc(O)cc2)=C3c2ccc(O)cc2)n1 (stereo unspecified) | 26.2 µM | > 50 µM | –
16 | COC(=O)c1ccc(NS(=O)(=O)C2CC3OC2C(c2ccc(O)cc2)=C3c2ccc(O)cc2)cc1 (stereo unspecified) | 15.1 µM | 13.2 µM | –
17 | O=C(NC1CC1)C1CC2OC1C(c1ccc(O)cc1)=C2c1ccc(O)cc1 (stereo unspecified) | > 100 µM | > 50 µM | –
18 | O=S(=O)(Oc1cncc(Cl)c1)C1CC2OC1C(c1ccc(O)cc1)=C2c1ccc(O)cc1 (stereo unspecified) | 49.4 µM | > 50 µM | –
19 | O=S(=O)(Oc1ccc2ccccc2c1)C1CC2OC1C(c1ccc(O)cc1)=C2c1ccc(O)cc1 (stereo unspecified) | 4.11 µM | 15.1 µM | –
20 | Cc1cc(=O)oc2cc(OS(=O)(=O)C3CC4OC3C(c3ccc(O)cc3)=C4c3ccc(O)cc3)ccc12 (stereo unspecified) | 38.3 µM | 13.7 µM | –
21 | O=S(=O)(Oc1ccc(-c2ccccc2)cc1)C1CC2OC1C(c1ccc(O)cc1)=C2c1ccc(O)cc1 (stereo unspecified) | 4.1 µM | > 50 µM | –
22 | O=C(NCc1ccc2c(c1)OCO2)C1CC2OC1C(c1ccc(O)cc1)=C2c1ccc(O)cc1 (stereo unspecified) | 35.2 µM | > 50 µM | –
23 | O=S(=O)(Oc1cccc(F)n1)C1CC2OC1C(c1ccc(O)cc1)=C2c1ccc(O)cc1 (stereo unspecified) | 8.79 µM | 1.55 µM | Activity (MCF7 [3]): 13.74%; viability at 5 µM (MCF7 [4]): 84.7%; Activity (MCF7 [5]): 11.03%; Activity (MCF7 [6]): 23.57%; Activity (MCF7 [7]): 2.08%; viability at 30 µM (MCF7 [8]): 56.9%; Activity (MCF7 [9]): 5.79%; Activity (MCF7 [10]): 2.21%; Activity (MCF7 [11]): 7.1%; viability at 10 µM (MCF7 [12]): 79.7%; Activity (MCF7 [13]): 4.62%; Activity (MCF7 [14]): 8.57%
24 | O=S(=O)(Oc1cccc2ccccc12)C1CC2OC1C(c1ccc(O)cc1)=C2c1ccc(O)cc1 (stereo unspecified) | 37.7 µM | > 50 µM | –
25 | CC/C(=C(\c1ccc(O)cc1)c1ccc(OCCN(C)C)cc1)c1ccccc1 [AFIMOXIFENE] | – | > 50 µM | –
